Measured values from PubChem BioAssay (NCI).
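A five-concentration, 48-hour dose response in 96-well plates underlies each endpoint, interpolated linearly between surrounding concentrations. Here, GI50 denotes the concentration required for 50% inhibition of growth. TGI: concentration producing complete growth inhibition.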

How the values were obtained:
Assay in all cases: DTP human tumour cell line panel, 48 h
SK-MEL-28 melanoma = tested on: SK-MEL-28 melanoma
SK-OV-3 ovarian = tested on: SK-OV-3 ovarian
A549 NSCLC = tested on: A549 NSCLC
OVCAR-8 ovarian = tested on: OVCAR-8 ovarian
SNB-19 CNS = tested on: SNB-19 CNS
COLO 205 colon = tested on: COLO 205 colon
HCT-116 colon = tested on: HCT-116 colon
UACC-62 melanoma = tested on: UACC-62 melanoma
RXF 393 renal = tested on: RXF 393 renal

SMILES | TGI (SK-MEL-28 melanoma) [µM] | TGI (SK-OV-3 ovarian) [µM] | TGI (A549 NSCLC) [µM] | TGI (OVCAR-8 ovarian) [µM] | TGI (SNB-19 CNS) [µM] | TGI (COLO 205 colon) [µM] | TGI (HCT-116 colon) [µM] | TGI (UACC-62 melanoma) [µM] | GI50 (RXF 393 renal) [µM] | TGI (RXF 393 renal) [µM] | GI50 (SK-MEL-28 melanoma) [µM] | GI50 (SK-OV-3 ovarian) [µM] | GI50 (A549 NSCLC) [µM] | GI50 (OVCAR-8 ovarian) [µM] | GI50 (SNB-19 CNS) [µM] | GI50 (COLO 205 colon) [µM] | GI50 (HCT-116 colon) [µM] | GI50 (UACC-62 melanoma) [µM]
COC(=O)C12C3C4C1C1C2C3C41C(=O)N(C(C)C)C(C)C (stereo not drawn) | > 100 | > 100 | > 100 | > 100 | > 100 | > 100 | > 100 | > 100 | – | – | – | – | – | – | – | – | – | –
O=C(c1ccccc1)c1ccccc1C(=O)c1ccccc1 | > 100 | > 100 | > 100 | > 100 | > 100 | > 100 | > 100 | > 100 | 47.8 | > 100 | 30.9 | 50.3 | 50 | 34.5 | > 100 | 79.5 | 29.8 | 29.7
CCC1(CC)C(=O)[N-]C(=O)[N-]C1=O.[Au+].[Au+].c1ccc([PH+](c2ccccc2)c2ccccc2)cc1.c1ccc([PH+](c2ccccc2)c2ccccc2)cc1 | 2.34 | 3.11 | – | – | – | 3.36 | – | 2.2 | – | – | 0.988 | 1.73 | – | – | – | 1.74 | – | 1.02
O=C1C2=C(c3ccccc31)C(c1ccc(F)cc1)N1C(=O)CCSC1=N2 (stereo not drawn) | > 100 | > 100 | > 100 | > 100 | > 100 | > 100 | > 100 | > 100 | – | – | – | – | – | – | – | – | – | –
CN/N=C(\C(=O)Nc1ccc([N+](=O)[O-])cc1[N+](=O)[O-])C1NC(=O)NC1=O (stereo not drawn) | > 100 | > 100 | > 100 | > 100 | > 100 | > 100 | > 100 | > 100 | – | > 100 | – | – | – | – | – | – | – | –
Cc1cc(Cl)ccc1NC(=O)CCCC(=O)C(C(=O)c1ccccc1)c1ccccc1 (stereo not drawn) | – | > 100 | – | – | – | > 100 | – | > 100 | – | – | – | – | – | – | – | – | – | –
Cc1ccc(SCC(O)=C2C(=O)CCCC2=O)cc1 | > 100 | > 100 | > 100 | > 100 | > 100 | > 100 | > 100 | > 100 | – | > 100 | – | – | – | – | – | – | – | –
N=C1C(c2nc(-c3ccc(Br)cc3)cs2)=C(O)CN1CC1CCCO1 (stereo not drawn) | > 100 | > 100 | > 100 | – | > 100 | > 100 | – | > 100 | > 100 | > 100 | > 100 | > 100 | > 100 | – | > 100 | > 100 | – | > 100
C[C@@H](c1ccccc1)N(CC#N)C1CCC[C@H]1O (stereo partly drawn) | > 100 | > 100 | > 100 | > 100 | > 100 | > 100 | > 100 | > 100 | – | > 100 | – | – | – | – | – | – | – | –
C/C=C/C(=O)[O-].N.N.N.N.N.[Co+3].[O-][Cl+3]([O-])([O-])[O-] | > 100 | > 100 | > 100 | > 100 | > 100 | > 100 | > 100 | > 100 | – | – | > 100 | > 100 | > 100 | > 100 | > 100 | > 100 | > 100 | > 100
Cc1ccc(C)c2c1CCc1cc3ccccc3nc1-2 | > 100 | > 100 | > 100 | > 100 | > 100 | > 100 | > 100 | > 100 | – | – | – | – | – | – | – | – | – | –
O=c1cccccc1NCCNc1cccccc1=O | – | > 100 | > 100 | > 100 | > 100 | > 100 | > 100 | > 100 | – | > 100 | – | – | – | – | – | – | – | –
O=C1C2=C(c3ccccc31)C(c1ccc(Cl)cc1)NC(=S)N2 (stereo not drawn) | 34.1 | > 100 | 39 | 38.4 | 96 | 64.9 | 28.3 | 70.9 | – | – | – | – | – | – | – | – | – | –
CNC(C)Cc1ccc(O)cc1 (stereo not drawn) | > 100 | > 100 | > 100 | > 100 | > 100 | > 100 | > 100 | > 100 | – | > 100 | – | – | – | – | – | – | – | –
[N-]=[N+]=Nc1c(Br)c(=O)[nH]c(=O)n1COCCO | > 100 | – | > 100 | > 100 | > 100 | > 100 | > 100 | > 100 | – | > 100 | – | – | – | – | – | – | – | –
COC(=O)C1=C(c2cc(OC)c(OC)c(OC)c2)O[C@H](c2ccc3c(c2)OCO3)[C@H]1COC(C)=O | – | 52.1 | – | > 100 | – | 26.3 | – | – | – | – | – | – | – | – | – | – | – | –
O=C(O)Cc1cc(=O)[nH]c2c1C(=O)CCC2 | > 100 | > 100 | – | > 100 | > 100 | > 100 | – | – | – | > 100 | – | – | – | – | – | – | – | –
COC(=O)c1nn(C(=N)c2ccc(Cl)cc2)c2c1CCCCC2 | > 100 | > 100 | > 100 | – | > 100 | > 100 | > 100 | > 100 | – | > 100 | – | – | – | – | – | – | – | –
CCOC(=O)NC(=O)c1cn(C2OC(CO)C(O)C2O)c(=O)[nH]c1=O (stereo not drawn) | > 100 | > 100 | > 100 | > 100 | > 100 | – | > 100 | > 100 | – | > 100 | – | – | – | – | – | – | – | –
